Test results published in publication PMC10755736, “Modulating Liquid–Liquid Phase Separation of Nck Adaptor Protein against Enteropathogenic Escherichia coli Infection” (ACS Central Science, 2023).
Entries after “also recorded” stand apart in the source; their conditions may differ. Non-standard residues stand in square brackets, D forms with d. Residues, ends and D or L forms follow the SMILES beside them. *: point of attachment. Biotin = O=C1N[C@H]2[C@H](CS[C@H]2CCCCC(=O)*)N1; Benzoyl(4-SO2F) = O=C(c1ccc(S(=O)(=O)F)cc1)*; pY = N[C@@H](Cc1ccc(OP(=O)(O)O)cc1)C(=O)O; Dap = NC[C@H](N)C(=O)O

How the values were obtained:
Nck = biological target: T1, Nck (Homo sapiens, UniProt P16333); assay: Reaction kinetics of p1 crosslinking with Nck (SDS-PAGE); format: binding; details: 1:1 reaction, p1 5 μM, Nck 5 μM, PBS, 37 °C
T1 construct: GST (followed by PreScission/HRV 3C site) (N, cleaved yes); made in house; host or cells: E. coli BL21(DE3)
Protocol: ether and purified by reverse-phase HPLC on a C18 column using acetonitrile/H2O (with 0.1% TFA) gradient on a reversed-phase C18 column, confirmed by MALDI-TOF MS analysis (Bruker, USA).
Pure peptides were lyophilized.
Crosslinking of Peptides with Nck in vitro […]
After incubation, 5´ loading buffer was added into the solution and heated at 100 °C for 10 min. These samples were then separated by 12% SDS-PAGE gel, which contained 10% glycerol instead of DI water, followed by staining with Coomassie brilliant blue. Western blot was then performed using the primary antibody specific for Nck or biotin and the secondary antibody.
Mass Spectrometric Analysis
(§1) The reaction mixture of Nck and p1 were digested with trypsin. Digested peptides were analyzed with an in-line EASY-spray source and nano-LC UltiMate 3000 high-performance liquid chromatography system (Thermo Fisher, USA) interfaced with an Elite mass spectrometer (Thermo Fisher, USA). The eluted peptides were detected by the Elite mass spectrometer, which was operated in data-dependent mode with one full MS scan at R = 60,000 (m/z = 200) mass, followed by MS/MS scans. Mass spectrometry raw data was searched by Maxquant.
Protein–Peptide Conjugation Reactions and the Binding Assay
The reaction solutions were then thermally denatured in the presence of loading dye to stop the reactions. […]

Nck-SH2K331A = assay: Covalent reaction of p1 with Nck-SH2 K331A mutant; format: binding; details: PBS, 37 °C, 1 min or 10 min; SDS-PAGE
Protocol: We next identified the residues in Nck-SH2 that are involved in the reaction with p1 by mass spectrometry. […] The Nck–p1 conjugate was digested with trypsin, and peptide fragments were analyzed with an in-line EASY-spray source and nano-LC UltiMate 3000 HPLC system interfaced with an Elite mass spectrometer, operated in the data-dependent acquisition (DDA) mode with one full MS scan at R = 60,000 (m/z = 200) mass followed by HCD MS/MS scans. […] The fragmentation spectral analysis of [EEHIpYXEVAAD(α)] + [HFKVQLK(β)] extracted by pLabel v2.4.3.0 (Figure 5a and Figure S6 in the Supporting Information)[38],[39] confirmed the ligand-directed conjugation of Nck-SH2 protein with p1 peptide. The underlined lysine residue in the β-chain sequence indicated the cross-linked site on the predicted Nck Lys331 residue. Next, we mutated Nck Lys331 to Ala, expressed and purified the Nck-SH2K331A mutant. […]
as §1, with “Mass spectrometry raw data was searched by Maxquant.” left out

**Q.** Which results are given for `CC[C@H](C)[C@H](NC(=O)[C@H](Cc1c[nH]cn1)NC(=O)[C@H](CCC(=O)O)NC(=O)[C@H](CCC(=O)O)NC(=O)CCCC[C@@H]1SC[C@@H]2NC(=O)N[C@@H]21)C(=O)N[C@@H](Cc1ccc(OP(=O)(O)O)cc1)C(=O)N[C@@H](CNC(=O)c1ccc(S(=O)(=O)F)cc1)C(=O)N[C@@H](CCC(=O)O)C(=O)N[C@H](C(=O)N[C@@H](C)C(=O)N[C@@H](C)C(=O)N[C@@H](CC(=O)O)C(N)=O)C(C)C` [p1] (Biotin-EEHI[pY][Dap](Benzoyl(4-SO2F))EVAAD-NH2; N-terminus and C-terminus assumed)?
**A.** time to reach 50% reaction efficiency (Nck): 2 min; reactivity with Nck-SH2 K331A (Nck-SH2K331A): did not show noticeable reactivity; also recorded: abolished the covalent reaction
